Where a name gives a salt, the structure may show the parent alone. Read-outs that look alike come from different tables or passages of the source.
Tests used:
[1] = test system: experimental malignancies; details: in vivo; cited from earlier work
pKa = assay type: physicochemical; details: for pKa (first value) / pKa (second value) / pKa (third value): 66% DMF
[2] = test system: human leukemic cells (CCRF-CEM cell line); test: CCRF-CEM Cytotoxicity Assay (72 h, Coulter particle counter); assay type: cell-based; details: 37° C., read-out: IC50 (concentration giving 50% growth inhibition)
Experimental: The CEM cells were grown in RPMI 1640 media (MA Bioproducts) at 37° C. in humidified atmospheric conditions of 95% air and 5% CO2. The cells were grown in static suspension and maintained in log growth phase at a concentration of 3-7×10^5 cells/ml. The cells were dispersed in wells at a concentration of 4.8×10^4 /well. The drug was dissolved in dimethyl sulfoxide and was added at different dilutions to the cluster plates (wells). The cluster plates were incubated at 37° C. for 72 hours. After 72 hours the wells were read using a ZBI Coulter particle counter. Table 3 below gives the results of such testing of several compounds represented by Formula I above. In the table, Column 1 gives the name of the compound and Column 2 gives the IC50 (concentration giving 50% growth inhibition) in μg/ml.

[3] = test system: P3/UCLA lung adenocarcinoma xenografts; test: in vivo test against xenografts of P3/UCLA lung adenocarcinoma in female nude mice; details: days 2, 5 and 8, 28-day results
Experimental: The compounds were tested in vivo against xenografts of P3/UCLA lung adenocarcinoma in female nude mice. The test was begun by implanting each mouse with 10^7 P3/UCLA tumor cells, subcutaneously. On each of days 2, 5, and 8 after implantation, each mouse was injected with a conjugate or a compound in physiological buffered saline. Control mice were injected with saline only. The doses of conjugate or of vinca intermediate (based on vinca hydrazide content) are indicated below. The size of the tumors induced by implantation was measured on days 14, 21, and 28 after implantation. Each treatment group consisted of five mice.

[4] = test system: human lung adenocarcinoma cells (P3/UCLA cell line); test: P3/UCLA - GIEMSA ASSAY (5 days); assay type: cell-based; details: 120 h, 37° C., free compound, read-out: IC50 (concentration giving 50% growth inhibition)
[5] = solvent not given, read-out: pKa (first value)
[6] = 66% dmf, read-out: pKa (second value)
[7] = 66% dmf, read-out: pKa (first value)
[8] = 66% dmf, read-out: pKa (third value)
[9] = 1.00 mg/kg (based on vinca hydrazide content)
[10] = 2.00 mg/kg (based on vinca hydrazide content)

CCC1(O)CN2CCc3c([nH]c4ccccc34)C(C(=O)OC)(c3cc4c(cc3OC)N(C)C3C(O)(C(=O)OC)CC5(CC)C=CCN6CCC43C65)CC(C2)C1O (centres unmarked) [4-desacetoxy-3'-hydroxyvinblastine]
found active in the treatment of experimental malignancies in animals [1]: active

CCC1(O)CC2CN(CCc3c([nH]c4ccccc34)C(C(=O)OC)(c3cc4c(cc3OC)N(C)C3C(O)(C(=O)OC)CC5(CC)C=CCN6CCC43C65)C2)C1 (centres unmarked) [4-desacetoxyvinblastine]
found active in the treatment of experimental malignancies in animals [1]: active

CC(=O)CCCC(=O)NCCC(=O)O [6-[(2-Carboxyethyl)amino]-2,6-dioxohexane]
pKa (pKa; [5]): 7.1

CCC1(O)CC2CN(CCc3c([nH]c4ccccc34)C(C(=O)OC)(c3cc4c(cc3OC)N(C)C3C(O)(C(=O)NN=C(C)CCCC(=O)O)C(O)C5(CC)C=CCN6CCC43C65)C2)C1 (centres unmarked) [Example 2, 4-Desacetyl VLB C-3 N^2-(4-carboxy-1-methylbutylidene)carboxhydrazide]
pKa (first value) (pKa): 5.1
pKa (second value) (pKa): 6.6
pKa (third value) (pKa): 7.7

CCC1(O)CC2CN(CCc3c([nH]c4ccccc34)C(C(=O)OC)(c3cc4c(cc3OC)N(C)C3C(O)(C(=O)NN=C(C)CCCCC(=O)O)C(O)C5(CC)C=CCN6CCC43C65)C2)C1 (centres unmarked) [Example 4, 4-Desacetyl VLB C-3 N^2-(5-carboxy-1-methylpentylidene)carboxhydrazide]
pKa (first value) (pKa): 5.3
pKa (third value) (pKa): 8.1
pKa (pKa; [6]): 7

CCC1(O)CC2CN(CCc3c([nH]c4ccccc34)C(C(=O)OC)(c3cc4c(cc3OC)N(C)C3C(O)(C(=O)NN=C(C)CCCCC(=O)O)C(O)C5(CC)C=CCN6CCC43C65)C2)C1 (centres unmarked) [Example 5, 4-Desacetyl VLB C-3 N^2-(5-carboxy-1-methylpentylidene)carboxhydrazidesulfate salt]
IC50 [2]: 0.2 µg/mL

CCC1(O)CC2CN(CCc3c([nH]c4ccccc34)C(C(=O)OC)(c3cc4c(cc3OC)N(C)C3C(O)(C(=O)NN=C(C)CCCC(=O)NCCC(=O)O)C(O)C5(CC)C=CCN6CCC43C65)C2)C1 (centres unmarked) [Example 6, 4-Desacetyl VLB C-3 N^2-(5-[(2-carboxyethyl)amino]-1-methyl-5-oxopentylidene)carboxhydrazide]
pKa (pKa; [7]): 5.1
pKa (pKa; [6]): 6.6
pKa (pKa; [8]): 7.3

CCC1(O)CC2CN(CCc3c([nH]c4ccccc34)C(C(=O)OC)(c3cc4c(cc3OC)N(C)C3C(O)(C(=O)NN=C(C)CCCC(=O)NCCC(=O)O)C(O)C5(CC)C=CCN6CCC43C65)C2)C1 (centres unmarked) [Example 7, 4-Desacetyl VLB C-3 N^2-(5-[(2-carboxyethyl)amino]-1-methyl-5-oxopentylidene)carboxhydrazide sulfate salt]
IC50 [2]: 0.095 µg/mL

CCC1(O)CC2CN(CCc3c([nH]c4ccccc34)C(C(=O)OC)(c3cc4c(cc3OC)N(C)C3C(O)(C(=O)NN=C(C)CCCCC(=O)NCCC(=O)O)C(O)C5(CC)C=CCN6CCC43C65)C2)C1 (centres unmarked) [Example 8, 4-Desacetyl VLB C-3 N^2-(6-[(2-carboxyethyl)amino]-1-methyl-6-oxohexylidene)carboxhydrazide]
pKa (pKa; [7]): 5
pKa (pKa; [6]): 6.2
pKa (pKa; [8]): 7.8

CCC1(O)CC2CN(CCc3c([nH]c4ccccc34)C(C(=O)OC)(c3cc4c(cc3OC)N(C)C3C(O)(C(=O)NN=C(C)CCCCC(=O)NCCC(=O)O)C(O)C5(CC)C=CCN6CCC43C65)C2)C1 (centres unmarked) [Example 9, 4-Desacetyl VLB C-3 N^2-(6-[(2-carboxyethyl)amino]-1-methyl-6-oxohexylidene)carboxhydrazide sulfate salt]
% Inhibition [3, 9]: 43%
% Inhibition [3, 10]: 35%
IC50 [2]: 0.068 µg/mL
IC50 [4]: 0.043 µg/mL

CCC1(O)CC2CN(CCc3c([nH]c4ccccc34)C(C(=O)OC)(c3cc4c(cc3OC)N(C)C3C(O)(C(=O)NNC(C)CCC(=O)O)C(O)C5(CC)C=CCN6CCC43C65)C2)C1 (centres unmarked) [Example 10, 4-Desacetyl VLB C-3 N^2-(3-carboxy-1-methylpropyl)carboxhydrazide]
pKa (first value) (pKa): 5.3
pKa (second value) (pKa): 6.9
pKa (third value) (pKa): 7.9

CCC1(O)CC2CN(CCc3c([nH]c4ccccc34)C(C(=O)OC)(c3cc4c(cc3OC)N(C)C3C(O)(C(=O)NNC(C)CCC(=O)O)C(O)C5(CC)C=CCN6CCC43C65)C2)C1 (centres unmarked) [Example 11, 4-Desacetyl VLB C-3 N^2-(3-carboxy-1-methylpropyl)carboxhydrazide sulfate salt]
IC50 [2]: 0.1 µg/mL

CCC1(O)CC2CN(CCc3c([nH]c4ccccc34)C(C(=O)OC)(c3cc4c(cc3OC)N(C)C3C(O)(C(=O)NNC(C)CCCCC(=O)O)C(O)C5(CC)C=CCN6CCC43C65)C2)C1 (centres unmarked) [Example 13, 4-Desacetyl VLB C-3 N^2-(5-carboxy-1-methylpentyl)carboxhydrazide sulfate salt]
IC50 [2]: 0.4 µg/mL

CCC1(O)CC2CN(CCc3c([nH]c4ccccc34)C(C(=O)OC)(c3cc4c(cc3OC)N(C)C3C(O)(C(=O)NNC(C)CCCC(=O)NCCC(=O)O)C(O)C5(CC)C=CCN6CCC43C65)C2)C1 (centres unmarked) [Example 14, 4-Desacetyl VLB C-3 N^2-(5-[(2-carboxyethyl)amino]-1-methyl-5-oxopentyl)carboxhydrazide]
pKa (pKa; [7]): 5.7
pKa (pKa; [6]): 6.7
pKa (pKa; [8]): 7.9

CCC1(O)CC2CN(CCc3c([nH]c4ccccc34)C(C(=O)OC)(c3cc4c(cc3OC)N(C)C3C(O)(C(=O)NNC(C)CCCC(=O)NCCC(=O)O)C(O)C5(CC)C=CCN6CCC43C65)C2)C1 (centres unmarked) [Example 15, 4-Desacetyl VLB C-3 N^2-(5-[(2-carboxyethyl)amino]1-methyl-5-oxopentyl)carboxhydrazide sulfate salt]
IC50 [2]: 0.046 µg/mL

CCC1(O)CC2CN(CCc3c([nH]c4ccccc34)C(C(=O)OC)(c3cc4c(cc3OC)N(C)C3C(O)(C(=O)NNC(C)CCCCC(=O)NCCC(=O)O)C(O)C5(CC)C=CCN6CCC43C65)C2)C1 (centres unmarked) [Example 17, 4-Desacetyl VLB C-3 N^2-(6-[(2-carboxyethyl)amino]-1-methyl-6-oxohexyl)carboxhydrazide sulfate salt]
% Inhibition [3, 9]: 20%
% Inhibition [3, 10]: 39%
IC50 [2]: 0.039 µg/mL
IC50 [4]: 0.217 µg/mL

CCC1(O)CC2CN(CCc3c([nH]c4ccccc34)C(C(=O)OC)(c3cc4c(cc3OC)N(C)C3C(O)(C(=O)NNC(C)CCCCC(=O)NCCC(=O)OC)C(O)C5(CC)C=CCN6CCC43C65)C2)C1 (centres unmarked) [Example 30, 4-Desacetyl VLB C-3 N^2-(6-[(3-methoxy-3-oxopropyl)amino]-1-methyl-6-oxohexyl)carboxhydrazide]
pKa (pKa; [5]): 5.4
pKa (pKa; solvent not given, read-out: pKa (second value)): 7.5

CC[C@]1(O)C[C@@H]2CN(CCc3c([nH]c4ccccc34)[C@@](C(=O)OC)(c3cc4c(cc3OC)N(C)[C@H]3[C@@](O)(C(=O)OC)[C@H](OC(C)=O)[C@]5(CC)C=CCN6CC[C@]43[C@@H]65)C2)C1 [VLB, vincaleukoblastine]
found active in the treatment of experimental malignancies in animals [1]: active

CCC1CC2CN(CCc3c([nH]c4ccccc34)C(C(=O)OC)(c3cc4c(cc3OC)N(C)C3C(O)(C(=O)OC)C(OC(C)=O)C5(CC)C=CCN6CCC43C65)C2)C1 (centres unmarked) [deoxy VLB "A"]
found active in the treatment of experimental malignancies in animals [1]: active

CCC1(O)CN2CCc3c([nH]c4ccccc34)C(C(=O)OC)(c3cc4c(cc3OC)N(C)C3C(O)(C(=O)OC)C(OC(C)=O)C5(CC)C=CCN6CCC43C65)CC(O)(C2)C1 (centres unmarked) [leurocolombine]
found active in the treatment of experimental malignancies in animals [1]: active

CC[C@]12CN3CCc4c([nH]c5ccccc45)[C@@](C(=O)OC)(c4cc5c(cc4OC)N(C=O)[C@H]4[C@@](O)(C(=O)OC)[C@H](OC(C)=O)[C@]6(CC)C=CCN7CC[C@]54[C@@H]76)C[C@@H](C3)[C@H]1O2 [leuroformine]
found active in the treatment of experimental malignancies in animals [1]: active

CC[C@]12CN3CCc4c([nH]c5ccccc45)[C@@](C(=O)OC)(c4cc5c(cc4OC)N(C)[C@H]4[C@@](O)(C(=O)OC)[C@H](OC(C)=O)[C@]6(CC)C=CCN7CC[C@]54[C@@H]76)C[C@H](C3)[C@H]1O2 [leurosine]
found active in the treatment of experimental malignancies in animals [1]: active

CCC1(O)CN2CCc3c([nH]c4ccccc34)C(C(=O)OC)(c3cc4c(cc3OC)N(C)C3C(O)(C(=O)OC)C(OC(C)=O)C5(CC)C=CCN6CCC43C65)CC(C2)C1O (centres unmarked) [vincadioline]
found active in the treatment of experimental malignancies in animals [1]: active

CC[C@]1(O)C[C@H]2CN(CCc3c([nH]c4ccccc34)[C@@](C(=O)OC)(c3cc4c(cc3OC)N(C=O)[C@H]3[C@@](O)(C(=O)OC)[C@H](OC(C)=O)[C@]5(CC)C=CCN6CC[C@]43[C@@H]65)C2)C1 [vincristine, leurocristine]
found active in the treatment of experimental malignancies in animals [1]: active

leurosidine
found active in the treatment of experimental malignancies in animals [1]: active

Source: patent US5043340A, “Derivatives of 4-desacetyl VLB C-3 carboxhydrazide” (Eli Lilly and Company, priority 1990, dated 1991)
